Data as given in patent publication EP2756852A1, “Heparin-lipidic nanoparticle conjugates” (Centre de Recerca en Salut Internacional de Barcelona, priority 2013, dated 2014).
“Also recorded” adds a separate entry of the source.

Experiments:
healthy cells = assay: Unspecific cytotoxicity assay (WST-1); format: cell-based; conditions: DOTAP concentration up to 200 µM; 24 or 48 h at 37°C; WST-1, absorbance at 440 nm
Experimental: Cells were seeded in 96-well plates at a density of 5000 cells/100 µl/well, and incubated for 24 hours at 37°C in Medium 199 with Earle's Salts, supplemented with L-glutamine and FBS (PAA Laboratories GmbH). After that time the medium was carefully removed with a pipette and 90 µL of new medium (without FBS in this case) were added, followed by 10 µL of the sample to be analysed, which consisted of a solution of DOTAP 200 µM in PBS. It is advisable to prepare the sample dilutions in a 9:1 proportion (9 µl media:1 µl sample). After incubating for either 24 or 48 h at 37°C, 10 µL of WST-1 reagent were added, and after incubating for 1 h at 37°C absorbance at 440 nm was measured.

P. falciparum 3D7 strain = assay: Plasmodium falciparum growth inhibition assay (parasitemia by blood smear counting or FACS); format: cell-based; conditions: expressed with respect to non-treated pRBC, 48 h, liposomes 50 µM total lipid, primaquine 3 µM final in culture
Experimental: For culture maintenance, parasitemias were kept below 5% late forms by dilution with washed RBCs.
150 µL of this Plasmodium culture was plated in 96-well plates and incubated in the presence of liposomes for 48 h in the conditions described above.
Parasitemia was determined by microscopic counting of blood smears, or by fluorescence-assisted cell sorting (FACS). Smears were fixed in methanol for a few seconds and then stained for ten minutes with Giemsa (Merck Chemicals, Germany) diluted 1:10 in Sorenson's Buffer, pH 7.2. […] Samples were analyzed using an Epics XL flow cytometer (Coulter Corporation, Miami, Florida), set up with the standard configuration. Excitation of the sample was done using a standard 488 nm air-cooled argon-ion laser at 15 mW power. Forward scatter and side scatter were used to gate the RBC population. […] The single-cell population was selected on a forward-side scatter scattergram, and the fluorescence from this population was analyzed. Parasitemia was expressed as the number of parasitized cells per 100 erythrocytes.
Parasitemia was determined by microscopic counting of blood smears, or by fluorescence-assisted cell sorting (FACS).

Row | Compound | cytotoxicity (healthy cells) | parasitemia (P. falciparum 3D7 strain; Example 1, FIG. 2) | parasitemia (P. falciparum 3D7 strain; Example 2, FIG. 3) | parasitemia (P. falciparum 3D7 strain; Example 3, FIG. 4)
1 | CCCCCCCC/C=C\CCCCCCCC(=O)OCC(C[N+](C)(C)C)OC(=O)CCCCCCC/C=C\CCCCCCCC (stereo not shown) [DOTAP, 1,2-dioleoyl-3-trimethylammonium-propane] | not toxic; also recorded: not observed | – | – | –
2 | COc1cc(NC(C)CCCN)c2ncccc2c1 (stereo not shown) [PQ, primaquine] | – | 24.8% | 45.8% | 46.4%
